Assays:
B103 neuroblastoma cells = assay: B103 live/dead cell assay with Aβ; format: cell-based, rat; details: Aβ 24 h; added 2 h before Aβ
Description: SRI-11381 is neuroprotective in vitro: To determine if the TGF-β-inducing capacity of SRI-011381 would translate into biologically beneficial effects, its neuroprotective potential was tested in B103 rat neuroblastoma cells and primary mouse neurons derived from E16 forebrains. B103 neuroblastoma cells were cultured in 24-well plates and exposed to an oligomeric preparation of Aβ together with compounds or recombinant TGF-β.
FIGS. 3A-3H illustrate that SRI-011381 protects cultured neurons from Aβ toxicity. B103 neuroblastoma cells were incubated with Aβ for 24 h. The compounds and TGF-β were added 2 h before Aβ. Following incubations live and dead cells were assessed with calcein-acetoxymethylester (CAM) and SYTOX Orange (Invitrogen), respectively.
B103 neuroblastoma cells: B103 neuroblastoma cells were cultured in Dulbecco's modified Eagle's medium containing 10% fetal calf serum and 1% v/v penicillin/streptomycin (Invitrogen) in a 5% CO2: 95% air atmosphere. 10^4 cells/well were seeded onto 24 well plates and cultured for 24 h before Aβ was added. The compounds and TGF-β were added 2 h before Aβ. Following a 24 h incubation with Aβ, live and dead cells were assessed using calcein-acetoxymethylester (CAM) and SYTOX Orange (Invitrogen), respectively. AM is a membrane-permeable, fluorogenic esterase substrate that is hydrolyzed intracellularly to a green fluorescent product (calcein) in live cells. SYTOX Orange is a high-affinity nucleic acid stain that easily penetrates cells with compromised plasma membranes and yet will not cross the membranes of live cells. After incubation with SYTOX Orange, the nucleic acids of dead cells fluoresce bright orange. […] Five fields were randomly selected from each well and the cell numbers were analyzed by ImageJ (NIH) in a blinded fashion.

hippocampal neurons = assay: Aβ-induced neuritic dystrophy in primary hippocampal neurons; format: cell-based, mouse; details: for average numbers of dystrophic neurites per neuron: 21-22 DIV, 5 μM Aβ, 48 h
Description: Primary hippocampal neurons isolated from E16 CF1 embryos were aged for 6-7 days or 21-22 days, then challenged with 5 μM oligomeric Aβ in the presence or absence of compounds, and assayed for neurotoxicity (cell survival as above) or neuritic dystrophy, respectively. For quantification of neuritic dystrophy, fixed cells were immune-stained with a MAP-2 monoclonal antibody to label dendrites.
Primary hippocampal neurons were isolated from E16 CF1 embryos. Twenty-four-well culture plates were coated with 10 μg/ml poly-L-lysine. Cells were seeded overnight at a density of 30,000 cells/well in DMEM/F-12 medium supplemented with 10% FBS and penicillin/streptomycin, and subsequently maintained in Neurobasal medium containing 2% B27 supplement. Cells were aged for 6-7 days or 21-22 days, then challenged with 5 μM Aβ in the presence or absence of compounds, and assayed for neurotoxicity or neuritic dystrophy, respectively. Cells were treated for 72 h for neurotoxicity assay and 48 h for neuritic dystrophy assay. At the end of treatment, an equal volume of 4% PFA was added, plates incubated at room temperature for 15 min and then washed three times with DPBS. Cells were kept in the last wash of DPBS at 4° C. until being counted or stained.
For quantification of neuritic dystrophy, fixed cells were immunostained with a MAP-2 monoclonal antibody (Sigma-Aldrich). […] MAP2 positive dendrites were observed under an inverted fluorescence microscope (Olympus). […] To quantify neurite curvature, an established method was modified for assessment of neurite curvature. Neurite tracks were digitized and approximated by a series of connected line segments using ImageJ (NIH). The angle of each segment was determined using a Sigmaplot macro, and the results were averaged to give the ‘mean differential curvature’. This parameter reflects the degree of neurite curvature with an increasing value indicating increased curvature. Neurite counting and quantification were performed in randomly selected fields (5 fields/well). All quantitative assessments were done by investigators blinded with respect to treatment conditions.

TGF-β signaling = assay: Bioluminescence in SBE-luc reporter mice; format: in vivo, mouse; details: brain/CNS bioluminescence
Description: The most promising compounds out of these screens were tested for their neuroprotective potential in B103 rat neuroblastoma cells and primary mouse neurons derived from E16 forebrains. Compounds were also tested for their capacity to reduce varicosities and tortuosity in primary mouse neurons. Accordingly, novel neuroprotectant small molecules have been identified that are as potent or better than TGF-β. Importantly, they fulfilled the critical neuroprotective properties in neuronal cell lines and primary hippocampal mouse neurons. • Compounds based on the 11H core: The present compositions and methods include salts of the active compounds and formulations, in particular pharmaceutically acceptable compositions for administration to an animal or human subject and containing active compounds. 129 analogs or derivatives of 11H were screened by a cell-based assay for their ability to increase TGF-β activity, i.e. to act as a TGF agonist. In particular, one compound (a) designated as SRI-011381 (381) was identified as especially advantageous, although active derivatives thereof are contemplated and have been identified. • Effects of TGF-β analogs in vitro: Some of the small-molecule TGF-β agonist compounds were tested for neuroprotection activity and toxicity in vitro (cell culture). In addition, the mechanism of action of the agonists was explored using cells with different genetic backgrounds with respect to protein of the […] signaling pathway. • Animal studies: Transgenic mice harboring the SBE-luc reporter gene were generated and used to test the derivatives of compound 11H in vivo. These “reporter mice” mice express SBE-luc (i.e., “the transgene”) in all cells of the body. Intraperitoneal injection of luciferin into SBE-luc-expressing mice produces bioluminescence generated by luciferase and photons penetrating the skull can be imaged using sensitive camera systems.
SBE-luciferase transgenic mice: Two-month old SBE-luciferase transgenic mice receive different concentrations of a test compound either s.q., ip., or orally by gavage. […] Following administration of the test or control compounds, mice are injected with luciferin ip. At, for example, 2, 8, and 16 hours following injection of luciferin, the mice are imaged to detect bioluminescence as described above. Brains may be harvested 16 hours following test compound injection, and may be divided sagittally. For example, one hemi-brain can be homogenized in luciferase assay buffer for measurement of reporter gene activation, while the other hemi-brain can be frozen at −70° C. for future study, including sectioning into individual brain regions

Molecule	Aβ-induced cell death (B103 neuroblastoma cells)	Aβ-induced increase in neurite curvature (mean differential curvature) (hippocampal neurons)	average numbers of dystrophic neurites per neuron (hippocampal neurons)	activation of TGF-β signaling in SBE-luc reporter mice (TGF-β signaling)
TGF-β1: Transforming Growth Factor-β, recombinant cytokine used as comparator	inhibit Aβ-induced cell death	prevented	markedly reduced	–
C/C(=C\c1ccccc1)CN(CC1CCNCC1)C(=O)NC1=CCC=CC1 [Compound 11H, reference compound]	–	–	markedly reduced	penetrate into the CNS and activate TGF-β signaling

Reference: US9796674B2, “Benzyl urea derivatives for activating TGF-beta signaling” (THE BOARD OF TRUSTEES OF THE LELAND STANFORD JUNIOR …, priority 2013, dated 2017)
